Test results: patent publication US6878736B1, “Histamine H3 receptor ligands” (James Black Foundation Limited, priority 1998, dated 2005)
Counter-ions that a name gives are not always drawn.

Key:
Histamine H3 receptor [1] = molecular target: T1, Histamine H3 receptor (Cavia porcellus, UniProt Q9JI35); test: Histamine H3 functional assay, guinea pig ileum (ileal longitudinal muscle, myenteric plexus); parameters: species or system tissue; settings: antagonist affinity from rightward shift of R-(α)-methylhistamine E/[A] curves (Schild), typical variance ±0.15 log units; for Kb: read-out: pKb (Guinea pig ileum) (converted)
Procedure: • 1. J. Med. Chem 1994, 314. • 2. WO 97/29092 Histamine H3 Functional Assay—Guinea Pig Ileum
The biological activity of the compounds of the examples was measured using the ileal longitudinal muscle, myenteric plexus assay described by Paton and Aboo Zar (J. Physiol. 1968, 194, 13-33). Male Dunkin-Hartley guinea pigs (250-300 g) were employed. Briefly, a 50 cm portion of ileum proximal to the caecum was removed, after discarding the terminal 20 cm. Ileal segments (3 cm) were cleaned by passing Krebs-Henseleit buffer containing 3 μM mepyramine gently through the ileum using a Pasteur pipette (size: 13.8 cm length, 0.65 cm diameter). To avoid unnecessary damage to the tissue, Krebs-Henseleit buffer was passed through the ileal segment, while it was lying horizontally on a petri dish. Therefore, the ileum was not over-distended and the buffer flowed through with ease. Each segment was then passed over a Pasteur pipette and the longitudinal muscle layer and adhering myenteric plexus was teased away using moist cotton wool, by stroking tangentially away from the mesenteric attachment. The tissues were suspended in 20 ml organ baths containing Krebs-Henseleit buffer at 37±1° C. and gassed with […]. The tissues were ligated to two parallel stainless steel wires, situated between two platinum electrodes (0.76 cm length, 0.06 cm diameter). All measurements were recorded isometrically (Grass FTO3 transducer). Following an initial loading tension of 1 g, the tissues were stimulated with electrical pulses at a frequency of 0.1 Hz and a pulse duration of 0.5 msec, as described by Kosterlitz & Watt (Br. J. Pharmacol. 1968, 266276). Initially, the tissues were stimulated at supramaximal (1.3 fold times maximal) voltage for a period of 30 min and then the tissues were washed and re-stimulated. A “sighter dose” of the selective histamine H3-receptor agonist, R-(α)-methylhistamine (0.3 μM) (Arrang et al. Nature, 1987, 117-123), was administered. Upon generation of response, the “sighter dose” was removed from the tissues by “washout” (6 washes over 60 min) and during this period the electrical stimulation was switched off. The tissues were then re-stimulated and allowed to stabilise prior to the addition of drug treatments, which were allocated on a randomised block basis to the organ baths. Following the incubation period, a single cumulative E/[A] curve was obtained. The experimental E/[A] curve data was expressed as the percentage inhibition of the peak height of electrically-stimulated contraction. Antagonist affinity values were calculated from the degree of rightward shift of the R-(α)-methylhistamine E/[A] curves using Schild's methods (Arunlakshana & Schild Br. J. Pharmacol. 1959, 48-58). Typical variance in this assay is ±0.15 log units.

Histamine H3 receptor [2] = molecular target: T1, Histamine H3 receptor; test: Histamine H3 radioligand binding assay, guinea pig cortex ([3H]-R-α-methylhistamine); settings: guinea pig cortex membranes, competition with 1 nM [3H]-R-α-methylhistamine; for Ki: read-out: pKi (Guinea pig cortex) (converted)
Procedure: The compounds of the invention were also tested in a guinea pig cortex binding assay, as follows:
Histamine H3 Radioligand Binding Assay—Guinea Pig Cortex
Male Dunkin Hartley guinea pigs (200-300 g) were used. The whole brain was removed and immediately placed in ice-cold 20 mM Hepes-NaOH buffer (pH7.4 at 21±3° C.). The cortex was dissected, weighed and homogenised in ice-cold 20 mM Hepes-NaOH buffer (pH7.4 at 21±3° C.) (50 ml/guinea-pig cortex) using a polytron (Kinematica AG; PT-DA 3020/2TS, 3×3 s). The homogenate was centrifuged at 100×g for 5 min and the supernatants pooled and stored at 4° C. The pellets were rehomogenised in fresh ice-cold buffer (80 ml) and recentrifuged (100×g for 5 min). The supernatants were pooled and pellets rehomogenised and recentrifuged (100×g for 5 min). All supernatants were pooled and centrifuged at 39,800×g for 12 min at 4° C. The final pellet was resuspended in 20 mM Hepes-NaOH buffer (pH7.4 at 21±3° C.) to a tissue concentration of 7.5 mg.ml^−1, using a teflon-in-glass homogeniser.
Guinea pig cortex membranes (400 μl) were incubated for 165 min at 21±3° C. in a final volume of 500 μl with 20 mM Hepes-NaOH buffer containing [^3H]-R-α-methylhistamine (50 μl; 1 nM) and competing compound. Total and non-specific binding of [^3H]-R-α-methylhistamine were defined using 50 μl of buffer and 50 μl of 10 μM thioperamide, respectively. The assay was terminated by rapid filtration through Whatman GF/B filters, presoaked (2 hr) in 0.1% polyethyleneimine, using a Brandell Cell Harvester. The filters were washed (3×3 ml) with ice-cold 50 mM Tris-HCl (pH6.9 at 21±3° C.), transferred into scintillation vials, 5 ml liquid scintillation cocktail was added and after 4 hours the bound radioactivity was determined by counting (4 min) in a Beckman liquid scintillation counter.
Data are analysed using GraphPad prism and the general equation for a competition curve with variable Hill slope (nH). [formula] where • X is the log concentration of competing compound, • Y is the binding obtained at each concentration of X, • pIC50 is the concentration of the competitor required to compete for half of the specific binding.
The IC50 is converted to the K1 using the Cheng Prusoff equation, K1=IC50/(1+(L/KD)) where • IC50 is the concentration of competitor required to compete for half the specific binding, • L is the radioligand concentration used, • KD is the equilibrium dissociation constant for the radioligand determined by saturation experiments.

T1 sequence (Q9JI35 whole entry): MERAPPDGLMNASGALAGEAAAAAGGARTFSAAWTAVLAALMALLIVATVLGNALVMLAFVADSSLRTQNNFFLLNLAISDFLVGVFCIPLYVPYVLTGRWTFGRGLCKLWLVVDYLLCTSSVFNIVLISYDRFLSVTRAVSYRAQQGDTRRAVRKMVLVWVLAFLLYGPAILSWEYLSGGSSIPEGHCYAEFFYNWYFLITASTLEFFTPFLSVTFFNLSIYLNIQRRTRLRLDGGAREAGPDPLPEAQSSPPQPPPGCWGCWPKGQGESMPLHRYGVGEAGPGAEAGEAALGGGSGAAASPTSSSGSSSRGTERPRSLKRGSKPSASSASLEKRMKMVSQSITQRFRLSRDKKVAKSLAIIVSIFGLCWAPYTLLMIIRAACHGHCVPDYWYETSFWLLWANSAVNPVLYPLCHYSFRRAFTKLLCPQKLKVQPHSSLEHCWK

| Kb (Histamine H3 receptor [1]) | Ki (Histamine H3 receptor [2]) | SMILES | pKb (Guinea pig ileum) (Histamine H3 receptor [1]) | pKi (Guinea pig cortex) (Histamine H3 receptor [2]) |
| --- | --- | --- | --- | --- |
| 50.1 nM | 2.51 nM | CCC(C)CNC(=N)NCCCCCN1CCCC1 (centres unmarked) [Example 67, N-(2-Methyl-butyl)-N′-(5-pyrrolidin-1-yl-pentyl)-guanidine bis-hydrochloride] |  |  |
| 200 nM | 100 nM | N=C(NCCCC1CCCCC1)NCCCN1CCCC1 [Example 43, N-(3-Cyclohexyl-propyl)-N′-(3-pyrrolidin-1-yl-propyl)-guanidine bis-hydrochloride] |  |  |
| 398 nM | 398 nM | CN1CCCC1CCCCNS(=O)(=O)Cc1ccc(Cl)cc1 (stereo not drawn) [Example 104, N-(4-(1-Methyl-pyrrolidin-2S-yl)-butyl)-(4-chlorophenyl)-methanesulfonamide] |  |  |
| 794 nM | 79.4 nM | COc1ccc(C/N=C(\N)NCCCN2CCCC2)cc1 [Example 3, N-(4-Methoxybenzyl)-N′-(3-pyrrolidin-1-yl-propyl)-guanidine bis-hydrochloride] |  |  |
| 501 nM | 251 nM | O=S(=O)(NCCCCCN1CCCC1)NCc1ccc(Cl)cc1 [Example 141, N-(4-Chlorobenzyl)-N′-(5-pyrrolidin-1-yl-pentyl)-sulfamide] |  |  |
| 2000 nM | 2000 nM | CNC(=O)CN(CCC[C@@H]1CCCN1C)S(=O)(=O)NCc1ccc(Cl)cc1 [Example 127, N-(4-Chlorobenzyl)-N′-(methylamidomethyl)-N′-(3-(1-methyl-pyrrolidin-2S-yl)propyl)-sulfamide] |  |  |
| 3980 nM | 63.1 nM | N=C(N)NCCCN1CCCC1 [Example 1, N-(3-Pyrrolidin-1-yl-propyl)-guanidine bis-hydrochloride] |  |  |
| 12.6 nM | 7.94 nM | N=C(N)N(CCCCCCN1CCCC1)Cc1ccc(Br)cc1 [Example 74, N-(4-Bromobenzyl)-N-(6-pyrrolidin-1-yl-hexyl)-guanidine bis-hydrochloride] |  |  |

Further lines, the compound ahead of its results:

| SMILES | Kb (Histamine H3 receptor [1]) | Ki (Histamine H3 receptor [2]) | pKb (Guinea pig ileum) (Histamine H3 receptor [1]) | pKi (Guinea pig cortex) (Histamine H3 receptor [2]) |
| --- | --- | --- | --- | --- |
| N=C(NCCCCN1CCCC1)NCCC12CC3CC(CC(C3)C1)C2 [Example 35, N-(2-Adamantan-1-yl-ethyl)-N′-(4-pyrrolidin-1-yl-butyl)-guanidine bis-hydrochloride] | 20 nM | 7.94 nM |  |  |
| CN1CCCC1CCNS(=O)(=O)c1ccc2ccccc2c1 (centres unmarked) [Example 89, N-(2-(1-Methyl-pyrrolidin-2-yl)-ethyl)-2-naphthalenesulfonamide] | 631 nM | 100 nM |  |  |
| Cc1ccccc1CNC(=N)NCCCCCN1CCCC1 [Example 48, N-(2-Methylbenzyl)-N′-(5-pyrrolidin-1-yl-pentyl)-guanidine bis-hydrochloride] | 25.1 nM | 3.16 nM |  |  |
| N=C(NCCCCCN1CCCC1)NCC1CCCCO1 (centres unmarked) [Example 58, N-(5-Pyrrolidin-1-yl-pentyl)-N′-(tetrahydro-pyran-2-yl-methyl)-guanidine bis-hydrochloride] | 200 nM | 3.16 nM |  |  |
| O=S(=O)(NCCCCN1CCCC1)NCc1ccc(Cl)cc1 [Example 139, N-(4-Chlorobenzyl)-N′-(4-pyrrolidin-1-yl-butyl)-sulfamide] | 501 nM | 200 nM |  |  |
| CN1CCC[C@H]1CCCNS(=O)(=O)CCCc1ccc(Cl)cc1 [Example 103, N-(3-(1-Methyl-pyrrolidin-2S-yl)-propyl)-3-(4-chlorophenyl)-propanesulfonamide] | 316 nM | 126 nM |  |  |
| Cl.Cl.N=C(NCCOCCN1CCCC1)NCC12CC3CC(CC(C3)C1)C2 [Example 59, N-Adamantan-1-yl-methyl-N′-(2-(2-pyrrolidin-1-yl-ethoxy)-ethyl)-guanidine bis-hydrochloride] |  |  | 7.0 | 8.0 |
| O=S(=O)(NCCN1CCCCC1)c1ccc2ccccc2c1 [Example 84, N-(2-Piperidin-1-yl-ethyl)-2-naphthalenesulfonamide] | 794 nM | 501 nM |  |  |
| CN1CC(OCc2ccc(Cl)cc2)CC1CCCNS(=O)(=O)NCc1ccc(Cl)cc1 (stereo not drawn) [Example 133, N-(4-Chlorobenzyl)-N′-(3-(4R-(4-chlorobenzyloxy)-1-methyl-pyrrolidin-2S-yl)-propyl)-sulfamide] | > 3160 nM | 2510 nM |  |  |
| N=C(NCCCN1CCCC1)NCc1ccc(Cl)cc1 [Example 2, N-(4-Chlorobenzyl)-N′-(3-pyrrolidin-1-yl-propyl)-guanidine bis-hydrochloride] | 398 nM | 50.1 nM |  |  |
| O=S(=O)(NCCCN1CCCC1)NCc1ccc(Cl)cc1 [Example 135, N-(4-Chlorobenzyl)-N′-(3-pyrrolidin-1-yl-propyl)-sulfamide] | 631 nM | 316 nM |  |  |
| CN1CCC[C@H]1CCCN(CCCc1ccc(Cl)cc1)S(=O)(=O)NCc1ccc(Cl)cc1 [Example 131, N-(4-Chlorobenzyl)-N′-(3-(4-chlorophenyl)propyl)-N′-(3-(1-methyl-pyrrolidin-2S-yl)propyl)-sulfamide] | > 3160 nM | 1000 nM |  |  |
| C[C@H](NC(=N)NCCCCCN1CCCC1)c1ccccc1 [Example 49, N-(1(S)-Phenyl-ethyl)-N′-(5-pyrrolidin-1-yl-pentyl)-guanidine bis-hydrochloride] | 31.6 nM | 6.31 nM |  |  |
| Cc1ccccc1CN(CCCCCCN1CCCC1)C(=N)N [Example 76, N-(2-Methylbenzyl)-N-(6-pyrrolidin-1-yl-hexyl)-guanidine bis-hydrochloride] | 7.94 nM | 1.58 nM |  |  |
| CN1CCC[C@H]1CCCNS(=O)(=O)CCc1ccc(Cl)cc1 [Example 102, N-(3-(1-Methyl-pyrrolidin-2S-yl)-propyl)-2-(4-chlorophenyl)-ethanesulfonamide] | 316 nM | 63.1 nM |  |  |
| N=C(NCCCN1CCCC1)NCc1ccc(Br)cc1 [Example 9, N-(4-Bromobenzyl)-N′-(3-pyrrolidin-1-yl-propyl)-guanidine bis-hydrochloride] | 316 nM | 5.01 nM |  |  |
| CN1CCC[C@H]1CCCNS(=O)(=O)Cc1ccc(Cl)cc1 [Example 99] | 316 nM | 200 nM |  |  |
| N=C(NCCCN1CCCC1)NCc1ccc2[nH]cnc2c1 [Example 13, N-(1H-Benzimidazol-5-yl-methyl)-N′-(3-pyrrolidin-1-yl-propyl)-guanidine tris-hydrochloride] | 501 nM | 20 nM |  |  |
| O=S(=O)(CCCCN1CCCC1)c1ccc2ccccc2c1 [Example 88] | 1260 nM | 631 nM |  |  |
| CN1CCC[C@H]1CCCNS(=O)(=O)NCc1ccc(I)cc1 [Example 114, N-(4-Iodobenzyl)-N′-(3-(1-methyl-pyrrolidin-2S-yl)-propyl)-sulfamide] | 100 nM | 316 nM |  |  |
